From ChEMBL document CHEMBL1135851, “Synthesis and biological evaluation of pyridine-modified analogues of 3-(2-aminoethoxy)pyridine as novel nicotinic receptor ligands” (Bioorg Med Chem Lett, 2002) come the findings set out here.

By Ki is commonly meant a dissociation constant, usually derived from enzyme kinetics or from competition with a known ligand. A higher Ki goes with lower affinity.

SMILES strings stand for the structures.

Assay [1] addresses Neuronal acetylcholine receptor. The assay can be described thus: Ability to displace radioligand [3H](-)-cytisine from Nicotinic acetylcholine receptor in rat brain membrane. Format: cell membranes.
Assay [2] is described as follows: Ability to displace radioligand [3H](-)-cytisine from Neuronal nicotinic receptor in rat brain membrane was determined. Format: cell membranes.

In assay [1], `C[C@@H](N)COc1ccc(Cl)nc1` yielded a Ki of 5.3 nM. In assay [1], `C[C@@H](N)COc1ccc(F)nc1` had a Ki of 6.6 nM. Still for that read-out and setting: under `N[C@H](COc1cnc(Cl)c(/C=C/c2ccncc2)c1)Cc1ccccc1` stands 9.9 nM; under `NCCOc1cncc(Cl)c1`, 140 nM; under `CC[C@H](N)COc1ccc(Cl)nc1`, 15 nM. For the molecule `CN[C@H](C)COc1ccc(F)nc1`, affinity in assay [1] was put at a Ki of 11 nM. The same measure, in the same setting: under `C[C@@H](N)COc1cnc(Cl)c(Br)c1` stands 1.5 nM. Molecule `CN[C@@H](C)COc1ccc(Cl)nc1` displayed a Ki in assay [1] of 41 nM. On the same count and under the same terms, the value for `C[C@@H](N)COc1cnc(Cl)c(/C=C/c2ccncc2)c1` was 0.081 nM; that for `Cc1ccc(OCCN(C)C)cn1` was 140 nM; that for `CNCCOc1cccnc1` was 17 nM. With `C[C@@H](COc1cnc(Cl)c(/C=C/c2ccncc2)c1)N(C)C`, the Ki in assay [1] was determined as 0.37 nM.

In assay [1], `CC[C@@H](COc1cnc(Cl)c(/C=C/c2ccncc2)c1)N(C)C` showed a Ki of 3.6 nM.

`CC[C@H](N)COc1cnc(Cl)c(/C=C/c2ccncc2)c1` came in with an inhibitory constant (Ki) in assay [1] of 0.18 nM. Still for that read-out and setting: the value for `CC[C@H](N)COc1ccc(F)nc1` was 39 nM.

The molecule `C[C@@H](COc1cnc(Cl)c(Br)c1)N(C)C` registered a Ki in assay [1] of 31 nM. Consider `C[C@H](COc1ccc(F)nc1)N(C)C`, for which the Ki in assay [1] was found to be 70 nM.

As to `CN[C@H](COc1cccnc1)Cc1ccccc1`, the affinity in assay [1], expressed as Ki, was 690 nM.

As for `CC[C@@H](COc1ccc(F)nc1)NC`, in assay [1], the affinity corresponds to a Ki of 220 nM. Same read-out and setting: the value for `CN(C)[C@H](COc1cnc(Cl)c(/C=C/c2ccncc2)c1)Cc1ccccc1` was 4.6 nM; that for `CNCCOc1cnc(Cl)c(Cl)c1` was 13 nM; that for `CN(C)CCOc1cncc(Cl)c1` was 74 nM.

In assay [1], `CNCCOc1ccc(Cl)nc1` registered a Ki of 22 nM. `CN[C@H](COc1cnc(Cl)c(/C=C/c2ccncc2)c1)Cc1ccccc1` returned a Ki in assay [1] of 2.6 nM. Regarding `C[C@@H](COc1ccc(F)nc1)N(C)C`, affinity in assay [1] was put at a Ki of 100 nM. Same read-out and setting: under `C[C@H](N)COc1ccc(F)nc1` stands 8.7 nM; under `CN[C@@H](C)COc1cnc(Cl)c(Br)c1`, 11 nM. `CNCCOc1cnc(Cl)c(Br)c1`: the Ki in assay [1] was determined as 14.3 nM. The same measure, in the same setting: the value for `CN[C@@H](C)COc1ccc(F)nc1` was 69 nM; that for `Cc1cc(OC[C@H](C)N)cnc1Cl` was 0.52 nM; that for `Cc1cc(OC[C@@H](C)N(C)C)cnc1Cl` was 7.2 nM. The same measure, in the same setting: the value for `CN[C@H](COc1cnc(Cl)c(Br)c1)Cc1ccccc1` was 85 nM. `CC[C@H](N)COc1cnc(Cl)c(Br)c1`: the Ki in assay [1] turned out to be 15 nM.

`COc1ccc(OCCN(C)C)cn1`: the Ki in assay [1] worked out at 406 nM. Same read-out and setting: under `CN(C)CCOc1cncc([N+](=O)[O-])c1` stands 260 nM; under `CN[C@@H](C)COc1cnc(Cl)c(C)c1`, 5.5 nM; under `CN[C@H](C)COc1ccc(Cl)nc1`, 5.9 nM. Still for that read-out and setting: the value for `Cc1cc(OC[C@@H](C)N)cnc1Cl` was 0.98 nM; that for `CNCCOc1cncc([N+](=O)[O-])c1` was 560 nM; that for `CN(C)CCOc1cncc(Br)c1` was 50 nM. Same read-out and setting: the value for `Cc1cc(OC[C@H](C)N(C)C)cnc1Cl` was 9.6 nM; that for `CN[C@H](C)COc1cnc(Cl)c(C)c1` was 0.57 nM. Turning to `CN[C@H](C)COc1cnc(Cl)c(Br)c1`, the inhibition constant Ki in assay [1] stood at 1.5 nM. Still for that read-out and setting: the value for `C[C@H](COc1cnc(Cl)c(Br)c1)N(C)C` was 12 nM; that for `N[C@H](COc1cnc(Cl)c(Br)c1)Cc1ccccc1` was 100 nM; that for `CN(C)CCOc1cncc(C(F)(F)F)c1` was 250 nM. Still for that read-out and setting: under `CN(C)[C@@H](CCCl)COc1cncc(C(F)(F)F)c1` stands 5.5 nM; under `CNCCOc1cncc(Cl)c1`, 37 nM; under `C[C@H](COc1cnc(Cl)c(/C=C/c2ccncc2)c1)N(C)C`, 0.1 nM. In turn, `CNCCOc1ccc(OC)nc1` gave a Ki in assay [1] of 620 nM. Take `CN(C)CCOc1ccc(Cl)nc1`: the Ki in assay [1] is 79 nM. Still for that read-out and setting: the value for `CN(C)CCOc1cnc(Cl)c(Cl)c1` was 16 nM; that for `CNCCOc1ccc(C)nc1` was 43 nM. On the same count and under the same terms, under `CN(C)CCOc1cnc(Cl)c(Br)c1` stands 7.1 nM. With `CN[C@H](C)COc1cnc(Cl)c(/C=C/c2ccncc2)c1`, affinity in assay [1] was put at a Ki of 0.077 nM. The same measure, in the same setting: under `C[C@H](N)COc1cnc(Cl)c(/C=C/c2ccncc2)c1` stands 0.076 nM; under `CN(C)[C@H](COc1cnc(Cl)c(Br)c1)Cc1ccccc1`, 320 nM; under `CNCCOc1cncc(N)c1`, 27 nM. The same measure, in the same setting: the value for `C[C@H](N)COc1ccc(Cl)nc1` was 4.5 nM.

Turning to `C[C@H](N)COc1cnc(Cl)c(Br)c1`, in assay [1], the Ki stood at 1.5 nM. Consider `Clc1ccc(OC[C@H]2CCN2)cn1` [TEBANICLINE], for which the affinity in assay [2], expressed as Ki, was 0.05 nM.
